Molecular target: T1, RIG-I (Homo sapiens, UniProt O95786)
T1 construct: endogenous in cells
T1 sequence (O95786 1-925): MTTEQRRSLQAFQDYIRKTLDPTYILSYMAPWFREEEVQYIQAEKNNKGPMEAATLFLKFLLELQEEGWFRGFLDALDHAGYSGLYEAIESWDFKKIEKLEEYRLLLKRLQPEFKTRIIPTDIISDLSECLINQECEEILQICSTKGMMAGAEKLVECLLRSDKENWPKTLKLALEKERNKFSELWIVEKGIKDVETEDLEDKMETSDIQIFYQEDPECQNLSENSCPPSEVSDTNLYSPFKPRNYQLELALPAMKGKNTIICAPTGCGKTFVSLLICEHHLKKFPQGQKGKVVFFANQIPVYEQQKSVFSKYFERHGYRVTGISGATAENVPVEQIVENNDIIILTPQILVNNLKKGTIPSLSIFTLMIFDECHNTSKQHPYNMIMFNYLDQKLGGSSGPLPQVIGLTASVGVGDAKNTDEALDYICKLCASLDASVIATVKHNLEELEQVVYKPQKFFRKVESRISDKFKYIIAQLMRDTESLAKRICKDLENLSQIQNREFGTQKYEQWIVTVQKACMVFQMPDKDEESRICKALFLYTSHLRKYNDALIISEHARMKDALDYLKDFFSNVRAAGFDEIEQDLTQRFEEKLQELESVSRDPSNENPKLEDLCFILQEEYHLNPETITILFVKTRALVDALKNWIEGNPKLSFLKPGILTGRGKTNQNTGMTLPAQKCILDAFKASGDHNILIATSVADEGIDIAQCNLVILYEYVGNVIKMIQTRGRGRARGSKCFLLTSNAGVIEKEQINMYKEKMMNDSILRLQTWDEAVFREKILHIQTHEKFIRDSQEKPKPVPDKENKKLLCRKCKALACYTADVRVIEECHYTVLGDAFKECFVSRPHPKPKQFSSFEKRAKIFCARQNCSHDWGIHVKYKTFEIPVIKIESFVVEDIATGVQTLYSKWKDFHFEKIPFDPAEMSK
Assay: RIG-I stimulation: chloroquine-blocked PBMCs, duplex lipofection, IFNa ELISA at 20 h
Assay type: cell-based
Conditions: FIG. 7B titration
Method: A screen of 2′-O-methylations resolved positions to introduce RIG-I selectivity (FIG. 5). For the sense (A) and antisense (B) strand of OH-GFP2 a full 2′-O-methylation screen was performed. Each position was modified individually by 2′-O-methylation and used for stimulation of RIG-I, TLR7 or TLR8. For stimulation of RIG-I, peripheral blood mononuclear cells (PBMCs) were blocked with Chloroquine and stimulated by lipofection of the duplex. IFNa was measured 20 h post stimulation by ELISA. For TLR7 and TLR8 only the relevant single-strand was screened for stimulatory capacity and checked on unblocked PBMCs. The single-strands were transfected by complexation with poly-L-Arginine and 20 h post transfection for TLR7 activation IFNa, for TLR8 activation IL12p70 was measured by ELISA. […]
FIG. 6: (A) Methylations inert for RIG-I activation were combined in the antisense strand and the resulting duplex was used for stimulation of chloroquine-blocked PBMCs at a concentration of 0.8 μg/ml. IFNa was measured by ELISA at 20 h post stimulation. […]
FIG. 7: (A) PBMCs were blocked with Chloroquine and stimulated with duplexes at a concentration of 0.8 μg/ml. 20 h post stimulation IFNa was measured by ELISA. […] 20 h post stimulation IFNa was determined in the supernatant by ELISA. […]

Substance: 3P-GFP2: ppp-GACGCUGACCCUGAAGUUCAUCUU / CUGCGACUGGGACUUCAAGUAGAA; unmodified triphosphate duplex (5'-triphosphate, chemistry not fully specified; one strand is listed 3' to 5')
- IFNa corresponding to 100% (50 nM, chloroquine-blocked PBMCs, Lipofectamine, 20 h, 4 donors): 16044 pg/mL

Substance: s15 PTO/as3 PTO: G*A*C GCUGACCCUGAAmGUUCAUC U U / C U GmCGACUGGGACUU CAAGUAG*A*A; * = PTO, Nm = 2′-OCH3 (sense GACGCUGACCCUGAAGUUCAUCUU; antisense CUGCGACUGGGACUUCAAGUAGAA; phosphorothioate and 2'-O-methyl modifications, chemistry not fully specified; one strand is listed 3' to 5')
- duplex immune activity (effect of 5′-PTO modification), in words (compared with s15/as3): maximum increase in activity
